From PMC12311729, “Probing the Mechanism of L‑DOPA 2,3-Dioxygenase Using Synthetic Derivatives of 3,4-Dihydroxyhydrocinnamic Acid” (ACS Omega, 2025)

Tests used:
[1] = biological target: L-DOPA 2,3-dioxygenase from S. lincolnensis (LmbB1) (Streptomyces lincolnensis, UniProt Q54354); experiment: UV-visible steady-state assay of L-DOPA 2,3-dioxygenase (LmbB1); format: biochemical; settings: for kSP, O2 (μM^-1 min^-1) at pH 7.5 relative to L-DOPA x 100 for LmbB1: percentage of the value for L-DOPA
Description: Purified, reconstituted L-DOPA 2,3-dioxygenases were assessed for activity by monitoring the cleavage of catecholic substrates using UV–visible spectroscopy. 3,4-Dihydroxyhydrocinnamic acid (DHHCA, 3) was purchased from Sigma-Aldrich. 6-CyanoDHHCA (5) and 6-bromoDHHCA (4) were synthesized as described above.
Molecular oxygen (AirGas) was bubbled directly into the reaction buffer through a glass-bonded silica gas diffuser (Bubblemac Industries, Inc.) or as a gas mixture blended with air (AirGas). Solutions were bubbled with oxygen for several minutes prior to use and for the duration of the experiment. To determine the K M for oxygen (i.e., K MO2), L-DOPA 2,3-dioxygenases (0.25–4.0 μM) were reacted with a saturating concentration of the catecholic substrate DHHCA/6-X-DHHCA derivatives (2–10× the K M sufficient to achieve k cat) and various oxygen concentrations (21–100% or 270–1300 μM at 22 °C). The concentration of oxygen was varied by changing the percentage of oxygen in the blend using a galvanic oxygen sensor and oxygen monitor (AirGas) and then bubbling solutions, as described above. Molecular oxygen percentages were converted to molar concentrations using a reference temperature of 22 °C. The reaction of L-DOPA 2,3-dioxygenases with DHHCA/6-X-DHHCA derivatives as a function of oxygen concentration was followed by the appearance of the steady-state cleavage product by using UV–visible spectroscopy.
The extinction coefficients for steady-state cleavage products of DHHCA and synthetic 6-X-DHHCA derivatives were determined by reacting various concentrations of DHHCA/6-X-DHHCA derivatives at 22 °C with a 10-fold stoichiometric excess of enzyme (quantified by Fe^II–see Reconstitution) in 50 mM HEPES buffer with 154 mM NaCl at pH 7.5, bubbled with 100% oxygen to a final concentration of 780–910 μM, depending on the volume of oxygenated buffer that comprised the reaction (60–70%). Substrate solutions were prepared from authentic synthetic standards using an analytical balance, and reactions were run to completion as assessed by the appearance of the steady-state product. The λmax and extinction coefficients of DHHCA, 6-cyanoDHHCA, and 6-bromoDHHCA were determined herein as ε380 = 40 740 ± 820 M^–1cm^–1, ε385 = 33 256 ± 484 M^–1cm^–1, and ε380 = 35 282 ± 1190 M^–1cm^–1, respectively (Figure S52).
Steady-state kinetic data were obtained through a UV–visible spectroscopic assay. Initial rates were obtained from the slopes of the linear regions of the progress curves and plotted versus substrate concentration to yield a hyperbola, which was analyzed using the Michaelis–Menten expression and nonlinear least-squares fitting (NLSF) with Origin 6.0 (Microcal). Two possible derivations of the Michaelis–Menten expression were used: 1) the traditional expression y = k cat × x/(K M + x), where y is Rate/E 0 or the rate of product formation (μM/min) divided by the starting enzyme concentration (μM), x is substrate concentration (μM) and k SP (also known as k cat × K M ^–1)–that is, the second-order rate constant of enzyme and substrate–is extracted from the fitted constants; or 2) the alternative derivation that extracts k SP and k cat directly from the fit: y = (k SP × x)/((1 + k SP × x)/k cat), and where y is Rate/E 0 or the rate of product formation (μM/min) divided by the starting enzyme concentration (μM), x is substrate concentration (μM), k SP is equivalent to k cat×K M ^–1, and K M is extracted from k cat/k cat×K M ^–1.

[2] = system: S. hygroscopicus jingganensis L-DOPA 2,3-dioxygenase (ShjDDO); experiment: Presteady state stopped-flow kinetic assay, modeled with KinTek Explorer; format: biochemical, Streptomyces hygroscopicus jingganensis
Description: Reaction temperature was controlled at 14 ± 0.5 °C by a circulating water bath. […] Stock solutions of 6-[…] prepared in DMSO. […] ShjDDO was reconstituted with iron(II) sulfate heptahydrate, gel filtered into the reaction buffer, and loaded into the drive syringe. […] Fifteen to twenty progress curves from the same experimental conditions were averaged in the KinTek Stopped Flow software and exported to KinTek Explorer for modeling. Between experiments, the instrument drive syringes were cleaned with acid, base, and water; soaked in 1% Hellmanex detergent for 30 min at ∼30-35 °C; thoroughly rinsed with water; and stored in 10% ethanol. […] state kinetic data were analyzed by fitting to simulated mechanisms using the KinTek Explorer software (KinTek Corp, Austin, TX). KinTek Explorer simulates experimental results by using direct numerical integration of rate equations for the kinetic model and yields estimates for the rate constants of microscopic steps. […] state experiments were modeled using KinTek Explorer according to a defined reaction pathway, as described in the Results and Discussion and shown in Scheme . The extinction coefficients of the DHHCA and 6-[…] semialdehyde products were independently determined as described above and fixed during fitting. Some rates were fixed as either “fast” (i.e., 1 × 10^9) or very slow (1 × 10^-12, i.e., ∼0) as described in the text. The equilibrium represented by k 1 and k -1 was fixed at the ratio of substrate charge states as predicted by the experimentally determined pK a values (Table ) and the Henderson-Hasselbach equation. Extinction coefficients were fitted and/or fixed during fitting as described in the text and interpreted using the observable expression: […], where a is the extinction coefficient applied to ESQ, b is the independently experimentally determined extinction coefficient on P, and c is a y-axis offset. […] ESO2 is the ternary complex of enzyme, substrate, and oxygen. ESQ represents the putative semiquinone intermediate, a UV-absorbing species, and ESQ_X is the species formed from the nonproductive quenching of the semiquinone. […] EP is the enzyme-product complex, and P is the free semialdehyde product. P can then degrade nonenzymatically to the spectroscopically silent P_X. Errors on each fit were calculated from 2[…] at 0.83 Chi^2. The KinTek Explorer program FitSpace explores the uniqueness of a particular fit to the data by measuring the dependence of the sum square error (SSE) on each pair of parameters, while allowing all other parameters to vary in seeking the best fit. […]

[3] = pH 7.35, 14 °C, ∼1000 μM O2, 380 nm, fitted, ± is FitSpace range

Sequence of L-DOPA 2,3-dioxygenase from S. lincolnensis (LmbB1) (Q54354 entry or part of it): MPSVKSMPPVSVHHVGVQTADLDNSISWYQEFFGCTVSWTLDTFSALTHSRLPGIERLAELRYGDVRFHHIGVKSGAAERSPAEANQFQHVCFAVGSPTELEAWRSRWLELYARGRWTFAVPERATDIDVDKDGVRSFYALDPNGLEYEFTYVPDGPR

Structure (SMILES): N#Cc1cc(O)c(O)cc1CCC(=O)O [6-CyanoDHHCA (5), 3-(2-cyano-4,5-dihydroxyphenyl) propanoic acid]
- activity / turnover as substrate ([1]; LmbB1, aerobic reaction observed by UV–visible spectroscopy): measurable activity
- kcat at 22 °C and 100% O2 saturation ([1]; S. lincolnensis enzyme, pH 7.5): 6.7 × 10^–4 ± 2.8 × 10 ^–5 sec^–1
- kSP,O2 × 10^2 at 22 °C ([1]; S. lincolnensis enzyme, values are kSP × 10^2): 1.4 × 10^–2 ± 3.0 × 10 ^–3 μM^–1 min^–1
- kSP catechol × 10^2 at 22 °C ([1]; S. lincolnensis enzyme, values are kSP × 10^2, kSP = kcat/KM): 3.1 × 10^–2 ± 3.9 × 10 ^–3 μM^–1 min^–1
- kSP, O2 (μM^-1 min^-1) at pH 7.5 relative to L-DOPA x 100 for LmbB1 ([1]; listed as 6-cyanoDHHCA): 0.02%
- kSP, O2 (μM^-1 min^-1) at pH 7.5 relative to L-DOPA x 100 for LmbB1 ([1]; listed as 6-cyanoDHHCA (5)): < 0.1%
- k6 (productive formation of EI) [2, 3]: ~0.55 s⁻¹
- k7 (rate of inactivation, ESQ to ESQ_X) [2, 3]: ~0.3 s⁻¹
- productive formation of EI (k 6) faster than the rate of inactivation (k 7) ([2]; ratio k6/k7, presteady state with ShjDDO): 1.85 times
